The values below come from patent publication US20130109682A1, “CYCLIC ETHER COMPOUNDS USEFUL AS KINASE INHIBITORS” (NOVARTIS AG, priority 2010, published 2013).

For orientation: IC50 means the concentration that gives 50% inhibition.

Holding throughout (format): biochemical
One test has as its target PIM1 (Homo sapiens, UniProt P11309). The test can be described thus: KinaseGlo Pim1 ATP depletion assay. How it is done: KinaseGlo Pim1 ATP Depletion Assay
The activity of PIM1 is measured using a luciferase-luciferin based ATP detection reagent to quantify ATP depletion resulting from kinase-catalyzed phosphoryl transfer to a peptide substrate. Compounds to be tested are dissolved in 100% DMSO and directly distributed into white 384-well plates at 0.5 μA per well. To start the reaction, 10 μA of 5 nM Pim1 kinase and 80 μM BAD peptide (RSRHSSYPAGT-OH) in assay buffer (50 mM HEPES pH 7.5, 5 mM MgCl2, 1 mM DTT, 0.05% BSA) is added into each well. After 15 minutes, 10 μl of 40 μM ATP in assay buffer is added. Final assay concentrations are 2.5 nM PIM1, 20 μM ATP, 40 μM BAD peptide and 2.5% DMSO. The reaction is performed until approximately 50% of the ATP is depleted, then stopped with the addition of 20 μA KinaseGlo Plus (Promega Corporation) solution. The stopped reaction is incubated for 10 minutes and the remaining ATP detected via luminescence on the Victor2 (Perkin Elmer). […] IC50, the half maximal inhibitory concentration, represents the concentration of a test compound that is required for 50% inhibition of its target in vitro.
For orientation: Kinase-Glo measures the ATP left after a reaction by luminescence.

The next test has as its target PIM2 (Homo sapiens, UniProt Q9P1W9). The experiment in a line: KinaseGlo Pim2 ATP depletion assay. How it is done:
KinaseGlo Pim2 ATP Depletion Assay
The activity of PIM2 is measured using a luciferase-luciferin based ATP detection reagent to quantify ATP depletion resulting from kinase-catalyzed phosphoryl transfer to a peptide substrate. Compounds to be tested are dissolved in 100% DMSO and directly distributed into white 384-well plates at 0.5 piper well. To start the reaction, 10 μl of 10 nM Pim2 kinase and 20 μM BAD peptide (RSRHSSYPAGT-OH) in assay buffer (50 mM HEPES pH 7.5, 5 mM MgCl2, 1 mM DTT, 0.05% BSA) is added into each well. After 15 minutes, 10 μl of 8 μM ATP in assay buffer is added. Final assay concentrations are 5 nM PIM2, 4 μM ATP, 10 μM BAD peptide and 2.5% DMSO. The reaction is performed until approximately 50% of the ATP is depleted, then stopped with the addition of 20 μl KinaseGlo Plus (Promega Corporation) solution. The stopped reaction is incubated for 10 minutes and the remaining ATP detected via luminescence on the Victor2 (Perkin Elmer).

The target of another test is PIM3 (Homo sapiens, UniProt Q86V86). The test can be described thus: KinaseGlo Pim3 ATP depletion assay. On the procedure: KinaseGlo Pim3 ATP Depletion Assay
The activity of PIM3 is measured using a luciferase-luciferin based ATP detection reagent to quantify ATP depletion resulting from kinase-catalyzed phosphoryl transfer to a peptide substrate. Compounds to be tested are dissolved in 100% DMSO and directly distributed into white 384-well plates at 0.5 μl per well. To start the reaction, 10 μl of 10 nM Pim3 kinase and 200 μM BAD peptide (RSRHSSYPAGT-OH) in assay buffer (50 mM HEPES pH 7.5, 5 mM MgCl2, 1 mM DTT, 0.05% BSA) is added into each well. After 15 minutes, 10 μl of 80 μM ATP in assay buffer is added. Final assay concentrations are 5 nM […], 40 μM ATP, 100 μM BAD peptide and 2.5% DMSO. The reaction is performed until approximately 50% of the ATP is depleted, then stopped by the addition of 20 μl KinaseGlo Plus (Promega Corporation) solution. The stopped reaction is incubated for 10 minutes and the remaining ATP detected via luminescence on the Victor2 (Perkin Elmer).

A further test deals with GSK3β (Homo sapiens, UniProt P49841). The test can be described thus: GSK3β ATP depletion assay. The conditions noted are these: read-out: GSK3b IC50. On the procedure:
GSK3β ATP Depletion Assay
The activity of GSK3β is measured using a luciferase-luciferin based ATP detection reagent to quantify ATP depletion resulting from kinase-catalyzed phosphoryl transfer to a peptide substrate. Compounds to be tested are dissolved in 100% DMSO and directly distributed into white 384-well plates at 0.5 μl per well. To start the reaction, 10 μl of 10 nM GSK3B kinase and 20 μM biotinylated CREB peptide ([…](pS)YR-NH2) in assay buffer (50 mM TRIS pH 7.5, 15 mM MgCl2, 1 mM DTT, 0.1% BSA) is added into each well. After 15 minutes, 10 μl of 2 μM ATP in assay buffer is added. Final assay concentrations are 5 nM GSK3B, […], 10 μM b-CREB peptide and 2.5% DMSO. The reaction is performed until approximately 50% of the ATP is depleted, then stopped with the addition of 20 μl KinaseGlo (Promega Corporation) solution. The stopped reaction is incubated for 10 minutes and the remaining ATP is detected via luminescence on the Victor2 (Perkin Elmer).

Chain of PIM1 (P11309 whole entry): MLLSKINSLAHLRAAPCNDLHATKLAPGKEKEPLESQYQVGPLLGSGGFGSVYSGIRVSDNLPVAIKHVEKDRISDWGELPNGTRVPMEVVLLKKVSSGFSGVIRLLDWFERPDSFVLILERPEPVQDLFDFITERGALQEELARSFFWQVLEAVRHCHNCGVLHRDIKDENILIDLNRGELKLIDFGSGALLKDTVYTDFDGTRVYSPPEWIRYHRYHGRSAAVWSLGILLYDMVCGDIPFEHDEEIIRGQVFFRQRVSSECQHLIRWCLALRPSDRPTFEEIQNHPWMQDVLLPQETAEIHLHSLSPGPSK
Chain of GSK3β (P49841 whole entry, species assumed): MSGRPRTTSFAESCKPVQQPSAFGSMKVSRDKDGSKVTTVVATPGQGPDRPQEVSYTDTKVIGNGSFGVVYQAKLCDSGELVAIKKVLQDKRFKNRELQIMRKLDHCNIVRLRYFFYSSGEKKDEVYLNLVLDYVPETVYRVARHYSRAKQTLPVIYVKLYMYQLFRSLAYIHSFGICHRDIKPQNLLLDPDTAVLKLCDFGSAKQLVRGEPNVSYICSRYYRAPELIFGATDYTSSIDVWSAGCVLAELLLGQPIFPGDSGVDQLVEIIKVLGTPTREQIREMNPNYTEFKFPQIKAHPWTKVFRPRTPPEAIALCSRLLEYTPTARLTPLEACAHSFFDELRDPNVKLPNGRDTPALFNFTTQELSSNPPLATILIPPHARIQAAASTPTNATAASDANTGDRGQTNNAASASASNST
Chain of PIM2 (Q9P1W9 whole entry): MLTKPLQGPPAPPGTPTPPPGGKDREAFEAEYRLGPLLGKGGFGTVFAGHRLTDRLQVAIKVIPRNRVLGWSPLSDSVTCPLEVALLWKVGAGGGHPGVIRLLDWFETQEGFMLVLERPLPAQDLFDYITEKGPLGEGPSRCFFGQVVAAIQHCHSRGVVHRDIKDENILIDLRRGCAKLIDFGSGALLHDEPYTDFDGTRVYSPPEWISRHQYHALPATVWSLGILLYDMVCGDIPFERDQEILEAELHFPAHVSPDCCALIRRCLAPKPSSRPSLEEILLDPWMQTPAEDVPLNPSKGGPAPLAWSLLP

`C[C@@H]1O[C@H](c2ccncc2NC(=O)c2ccc(F)c(-c3c(F)cccc3F)n2)C[C@H](O)[C@]1(O)CO` [Example 19, 6-(2,6-difluorophenyl)-N-(4-((2S,4S,5R,6S)-4,5-dihydroxy-5-(hydroxymethyl)-6-methyltetrahydro-2H-pyran-2-yl)pyridin-3-yl)-5-fluoropicolinamide]: the IC50 against PIM1 came to 1 nM; against PIM2, 10 nM; at PIM3, 4 nM; at GSK3β it was 703 nM.

As for `C[C@H]1O[C@@H](c2ccncc2NC(=O)c2ccc(F)c(-c3c(F)cccc3F)n2)C[C@@H](O)[C@@]1(O)CO` [Example 20, 6-(2,6-difluorophenyl)-N-(4-((2R,4R,5S,6R)-4,5-dihydroxy-5-(hydroxymethyl)-6-methyltetrahydro-2H-pyran-2-yl)pyridin-3-yl)-5-fluoropicolinamide], the IC50 against PIM1 is 8 nM; against PIM2, 103 nM; against PIM3, 32 nM; at GSK3β it was 2560 nM.

As to `N#C[C@H]1OC(c2ccncc2NC(=O)c2ccc(F)c(-c3c(F)cccc3F)n2)=C[C@@H](O)[C@@H]1O` [Example 21, N-(4-((2R,3S,4R)-2-cyano-3,4-dihydroxy-3,4-dihydro-2H-pyran-6-yl)pyridin-3-yl)-6-(2,6-difluorophenyl)-5-fluoropicolinamide], the IC50 against PIM1 was 1 nM; against PIM2, 9 nM; against PIM3 it was 3 nM; on GSK3β it was 1140 nM.

With `N#CC[C@H]1O[C@@H](c2ccncc2NC(=O)c2ccc(C#N)c(-c3c(F)cccc3F)n2)CC[C@@H]1O` [Example 45, 5-cyano-N-(4-((2R,5S,6R)-6-(cyanomethyl)-5-hydroxytetrahydro-2H-pyran-2-yl)pyridin-3-yl)-6-(2,6-difluorophenyl)picolinamide], the IC50 was 68 nM at PIM1, 1270 nM against PIM2, 338 nM against PIM3 and 4310 nM on GSK3β.

As for `O=C(Nc1cnccc1[C@@]1(C(F)(F)F)C[C@@H](O)C=CO1)c1ccc(F)c(-c2c(F)cccc2F)n1` [Example 48, 6-(2,6-difluorophenyl)-5-fluoro-N-(4-((2R,4R)-4-hydroxy-2-(trifluoromethyl)-3,4-dihydro-2H-pyran-2-yl)pyridin-3-yl)picolinamide], the IC50 against PIM1 was 72 nM; on PIM2 it was 19600 nM; against PIM3, 1770 nM; at GSK3β, 3620 nM.

Consider `O=C(Nc1cnccc1[C@]1(C(F)(F)F)C[C@H](O)C=CO1)c1ccc(F)c(-c2c(F)cccc2F)n1` [Example 49, 6-(2,6-difluorophenyl)-5-fluoro-N-(4-((2S,4S)-4-hydroxy-2-(trifluoromethyl)-3,4-dihydro-2H-pyran-2-yl)pyridin-3-yl)picolinamide], for which the IC50 worked out at 27 nM against PIM1, 1420 nM against PIM2, 73 nM against PIM3 and 210 nM on GSK3β.

`O=C(Nc1cnccc1[C@]1(C(F)(F)F)C[C@H](O)CCO1)c1ccc(F)c(-c2c(F)cccc2F)n1` [Example 50, 6-(2,6-difluorophenyl)-5-fluoro-N-(4-((2S,4R)-4-hydroxy-2-(trifluoromethyl)tetrahydro-2H-pyran-2-yl)pyridin-3-yl)picolinamide]: the IC50 at PIM1 amounted to 28 nM; on PIM2 it was 2130 nM; on PIM3, 110 nM; on GSK3β, 196 nM.

With `O=C(Nc1cnccc1[C@@]1(C(F)(F)F)CCCCO1)c1ccc(F)c(-c2c(F)cccc2F)n1` [Example 51, (R)-6-(2,6-difluorophenyl)-5-fluoro-N-(4-(2-(trifluoromethyl)tetrahydro-2H-pyran-2-yl)pyridin-3-yl)picolinamide], the IC50 at PIM1 stood at 54 nM; against PIM2, 7360 nM; on PIM3, 617 nM; at GSK3β it was 3720 nM.

Turning to `O=C(Nc1cnccc1[C@]1(C(F)(F)F)CCCCO1)c1ccc(F)c(-c2c(F)cccc2F)n1` [Example 52, (S)-6-(2,6-difluorophenyl)-5-fluoro-N-(4-(2-(trifluoromethyl)tetrahydro-2H-pyran-2-yl)pyridin-3-yl)picolinamide], the IC50 against PIM1 is 29 nM; against PIM2 it was 4220 nM; at PIM3, 124 nM; on GSK3β, 695 nM.

Turning to `O=C(Nc1cnccc1[C@@]1(C(F)(F)F)C[C@@H](O)CCO1)c1ccc(F)c(-c2c(F)cccc2F)n1` [Example 53, 6-(2,6-difluorophenyl)-5-fluoro-N-(4-((2R,4S)-4-hydroxy-2-(trifluoromethyl)tetrahydro-2H-pyran-2-yl)pyridin-3-yl)picolinamide], the IC50 at PIM1 came to 78 nM; against PIM2, 10300 nM; against PIM3, 847 nM; at GSK3β it was 3120 nM.

Turning to `NC(=O)C[C@H]1O[C@@H](c2ccncc2NC(=O)c2ccc(F)c(-c3c(F)cccc3F)n2)C[C@@H](O)[C@@H]1O` [Example 159, N-(4-((2R,4R,5S,6R)-6-(2-amino-2-oxoethyl)-4,5-dihydroxytetrahydro-2H-pyran-2-yl)pyridin-3-yl)-6-(2,6-difluorophenyl)-5-fluoropicolinamide], the IC50 came to 6640 nM against PIM2 and 890 nM against PIM3.

For `CC[C@H]1O[C@@H](c2ccncc2NC(=O)c2c[nH]cc(-c3ccccc3)c2=O)C[C@@H](O)[C@@H]1O` [Example 170, N-(4-((2R,4R,5S,6R)-6-ethyl-4,5-dihydroxytetrahydro-2H-pyran-2-yl)pyridin-3-yl)-4-oxo-5-phenyl-1,4-dihydropyridine-3-carboxamide], the IC50 against PIM1 is 1450 nM; at PIM2 it was 11800 nM; against PIM3 it was 1320 nM; on GSK3β it was 3580 nM.

As to `O=C(Nc1cnccc1[C@@H]1C[C@H](O)[C@]2(O)CCCC[C@@H]2O1)c1c[nH]cc(-c2ccccc2)c1=O` [Example 171, N-(4-((2S,4S,4aR,8aS)-4,4a-dihydroxyoctahydro-2H-chromen-2-yl)pyridin-3-yl)-4-oxo-5-phenyl-1,4-dihydropyridine-3-carboxamide], the IC50 was 8370 nM against PIM1, greater than 25000 nM at PIM2, 10800 nM against PIM3 and greater than 25000 nM on GSK3β.

Turning to `Nc1cnc(-c2c(F)cccc2F)nc1C(=O)Nc1cnccc1[C@H]1C[C@@H](O)[C@@]2(O)CCCC[C@H]2O1` [Example 172, 5-amino-2-(2,6-difluorophenyl)-N-(4-((2R,4R,4aS,8aR)-4,4a-dihydroxyoctahydro-2H-chromen-2-yl)pyridin-3-yl)pyrimidine-4-carboxamide], the IC50 against PIM1 turned out to be 2.2 nM; against PIM2, 3.1 nM; on PIM3, 3.1 nM; at GSK3β, 21 nM.
